These are literature values, as cited in US20240136011A1, “SYSTEM, METHOD, AND COMPUTER PROGRAM FOR PHYSICS-BASED BINDING AFFINITY ESTIMATION” (BOARD OF TRUSTEES OF THE UNIVERSITY OF ARKANSAS, priority 2022, published 2024).

In the series the target is human fibroblast growth factor 1 (hFGF1) (Homo sapiens, UniProt P05230). To be noted: MM-GBSA; recent computational studies.
Chain of human fibroblast growth factor 1 (hFGF1) (P05230 whole entry): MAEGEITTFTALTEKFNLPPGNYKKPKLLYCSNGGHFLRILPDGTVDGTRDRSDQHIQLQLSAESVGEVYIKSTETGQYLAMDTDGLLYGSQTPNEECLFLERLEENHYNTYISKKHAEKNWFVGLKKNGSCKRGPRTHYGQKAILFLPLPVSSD

On to heparin hexasaccharide, for which the “ΔG°” value was -95 ± 11 kcal/mol.
